# Laboratory results: ChEMBL document CHEMBL5634117 (Eur J Med Chem, 2023)
# Activity calls are given as the source filed them. The rule behind the calls is not given here.
# Columns and labels:
# [1] = Cytotoxicity against African green monkey Vero cells assessed as decrease in number of viable cells at 100 uM measured after 48 hrs by SRB assay relative to control; assay type: toxicity, cell-based; conditions: chlorocebus sabaeus
# [2] = Cytotoxicity against African green monkey Vero cells assessed as decrease in number of viable cells at 30 uM measured after 48 hrs by SRB assay relative to control; assay type: toxicity, cell-based; conditions: chlorocebus sabaeus
# K562 [3] = assay: Induction of cell cycle arrest in human K562 cells assessed as accumulation of cells at SubG1 phase at 2.56 uM measured after 24 hrs by PI staining based flow cytometry analysis (reference value: 2.21%); assay type: functional
# K562 [4] = assay: Induction of cell cycle arrest in human K562 cells assessed as accumulation of cells at G2/M phase at 1.28 uM measured after 24 hrs by PI staining based flow cytometry analysis (reference value: 25.62%); assay type: functional
# K562 [5] = assay: Induction of cell cycle arrest in human K562 cells assessed as accumulation of cells at G0/G1 phase at 1.28 uM measured after 24 hrs by PI staining based flow cytometry analysis (reference value: 46.72%); assay type: functional
# K562 [6] = assay: Induction of apoptosis in human K562 cells assessed as early apoptotic cells at 2.56 uM incubated for 24 hrs by annexinV and propidium iodide staining based flow cytometry analysis (reference value: 1.17%); assay type: functional
# [7] = Cytotoxicity against African green monkey Vero cells assessed as decrease in population of viable cells at 0 to 10 uM measured after 48 hrs by SRB assay relative to control; assay type: toxicity, cell-based; conditions: chlorocebus sabaeus, dose 0-10 µM
# K562 [8] = assay: Induction of cell cycle arrest in human K562 cells assessed as accumulation of cells at G0/G1 phase at 0.64 uM measured after 24 hrs by PI staining based flow cytometry analysis (reference value: 46.72%); assay type: functional
# K562 [9] = assay: Induction of cell cycle arrest in human K562 cells assessed as accumulation of cells at G0/G1 phase at 2.56 uM measured after 24 hrs by PI staining based flow cytometry analysis (reference value: 46.72%); assay type: functional
# K562 [10] = assay: Induction of cell cycle arrest in human K562 cells assessed as accumulation of cells at S phase at 2.56 uM measured after 24 hrs by PI staining based flow cytometry analysis (reference value: 24.75%); assay type: functional
# K562 [11] = assay: Induction of cell cycle arrest in human K562 cells assessed as accumulation of cells at G2/M phase at 0.64 uM measured after 24 hrs by PI staining based flow cytometry analysis (reference value: 25.62%); assay type: functional
# K562 [12] = assay: Induction of cell cycle arrest in human K562 cells assessed as accumulation of cells at SubG1 phase at 1.28 uM measured after 24 hrs by PI staining based flow cytometry analysis (reference value: 2.21%); assay type: functional
# K562 [13] = assay: Induction of apoptosis in human K562 cells assessed as early apoptotic cells at 0.64 uM incubated for 24 hrs by annexinV and propidium iodide staining based flow cytometry analysis (reference value: 1.17%); assay type: functional
# K562 [14] = assay: Induction of cell cycle arrest in human K562 cells assessed as accumulation of cells at G0/G1 phase at 1.28 uM measured after 24 hrs by PI staining based flow cytometry analysis (reference value: 46.71%); assay type: functional
# K562 [15] = assay: Induction of cell cycle arrest in human K562 cells assessed as accumulation of cells at G2/M phase at 1.25 uM measured after 24 hrs by PI staining based flow cytometry analysis (reference value: 29.44%); assay type: functional
# K562 [16] = assay: Induction of apoptosis in human K562 cells assessed as late apoptotic cells at 5 uM incubated for 24 hrs by annexinV and propidium iodide staining based flow cytometry analysis (reference value: 1.342%); assay type: functional
# K562 [17] = assay: Induction of cell cycle arrest in human K562 cells assessed as accumulation of cells at G0/G1 phase at 0.64 uM measured after 24 hrs by PI staining based flow cytometry analysis (reference value: 46.71%); assay type: functional
# K562 [18] = assay: Induction of cell cycle arrest in human K562 cells assessed as accumulation of cells at G0/G1 phase at 1.25 uM measured after 24 hrs by PI staining based flow cytometry analysis (reference value: 46.67%); assay type: functional
# K562 [19] = assay: Induction of apoptosis in human K562 cells assessed as late apoptotic cells at 0.64 uM incubated for 24 hrs by annexinV and propidium iodide staining based flow cytometry analysis (reference value: 1.34%); assay type: functional
# K562 [20] = assay: Induction of cell cycle arrest in human K562 cells assessed as accumulation of cells at G2/M phase at 2.56 uM measured after 24 hrs by PI staining based flow cytometry analysis (reference value: 29.09%); assay type: functional
# K562 [21] = assay: Induction of apoptosis in human K562 cells assessed as late apoptotic cells at 2.56 uM incubated for 24 hrs by annexinV and propidium iodide staining based flow cytometry analysis (reference value: 1.34%); assay type: functional
# K562 [22] = assay: Induction of cell cycle arrest in human K562 cells assessed as accumulation of cells at SubG1 phase at 1.25 uM measured after 24 hrs by PI staining based flow cytometry analysis (reference value: 3.43%); assay type: functional
# K562 [23] = assay: Induction of apoptosis in human K562 cells assessed as late apoptotic cells at 2.5 uM incubated for 24 hrs by annexinV and propidium iodide staining based flow cytometry analysis (reference value: 1.34%); assay type: functional
# K562 [24] = assay: Induction of apoptosis in human K562 cells assessed as early apoptotic cells at 2.56 uM incubated for 24 hrs by annexinV and propidium iodide staining based flow cytometry analysis (reference value: 0.42%); assay type: functional
# K562 [25] = assay: Induction of cell cycle arrest in human K562 cells assessed as accumulation of cells at SubG1 phase at 2.56 uM measured after 24 hrs by PI staining based flow cytometry analysis (reference value: 2.48%); assay type: functional
# K562 [26] = assay: Induction of apoptosis in human K562 cells assessed as late apoptotic cells at 1.25 uM incubated for 24 hrs by annexinV and propidium iodide staining based flow cytometry analysis (reference value: 1.34%); assay type: functional
# K562 [27] = assay: Induction of cell cycle arrest in human K562 cells assessed as accumulation of cells at G2/M phase at 1.28 uM measured after 24 hrs by PI staining based flow cytometry analysis (reference value: 29.092%); assay type: functional
# K562 [28] = assay: Induction of cell cycle arrest in human K562 cells assessed as accumulation of cells at S phase at 0.64 uM measured after 24 hrs by PI staining based flow cytometry analysis (reference value: 21.74%); assay type: functional
# K562 [29] = assay: Induction of cell cycle arrest in human K562 cells assessed as accumulation of cells at S phase at 1.28 uM measured after 24 hrs by PI staining based flow cytometry analysis (reference value: 21.74%); assay type: functional
# K562 [30] = assay: Induction of cell cycle arrest in human K562 cells assessed as accumulation of cells at SubG1 phase at 2.5 uM measured after 24 hrs by PI staining based flow cytometry analysis (reference value: 3.43%); assay type: functional
# K562 [31] = assay: Induction of autophagy in human K562 cells assessed as increase in beclin-1 level at 1.28 to 2.56 uM measured after 24 hrs by Western blotting analysis; assay type: functional, cell-based; conditions: dose 1.28-2.56 µM
# K562 [32] = assay: Induction of cell cycle arrest in human K562 cells assessed as accumulation of cells at G2/M phase at 5 uM measured after 24 hrs by PI staining based flow cytometry analysis (reference value: 29.44%); assay type: functional
smiles,measurement,setting,value
CC(C)(C)n1cc(-c2ccnc(NCCCNS(=O)(=O)c3ccc(Cl)cc3)c2)c(-c2cccc(O)c2)n1,Activity,[1],27%
same,Activity,[2],53%
same,Activity,K562 [3],0.07%
same,Activity,K562 [4],58.95%
same,Activity,K562 [5],7.27%
same,Activity,K562 [6],2.14%
same,Activity,[7],68%
same,Activity,K562 [8],25.21%
same,Activity,K562 [9],0.17%
same,Activity,K562 [10],4.89%
same,Activity,K562 [11],51.01%
same,Activity,K562 [12],0.23%
same,Activity,K562 [13],1.07%
O=C1c2ccccc2-c2n[nH]c3cccc1c23,Activity,K562 [14],28.15%
same,Activity,K562 [15],41.64%
same,Activity,K562 [16],4.12%
same,Activity,K562 [17],27.69%
same,Activity,K562 [18],34.01%
same,Activity,K562 [19],1.14%
same,Activity,K562 [20],37.88%
same,Activity,K562 [21],3.7%
same,Activity,K562 [22],4.71%
same,Activity,K562 [23],3.86%
same,Activity,K562 [24],1.05%
same,Activity,K562 [25],2.85%
same,Activity,K562 [26],1.47%
same,Activity,K562 [27],47.55%
same,Activity,K562 [28],18.56%
same,Activity,K562 [29],16.61%
same,Activity,K562 [30],4.35%
same,Activity,K562 [31],Active
same,Activity,K562 [32],47.08%
